Legend:
male KK-A^y mice [1] = assay: Hypoglycemic action (method A); assay type: in vivo, mouse; settings: 4 consecutive days, non-fasting, about 24 hours after final administration, vs control group
Protocol: (§1) The glucose level in the plasma was measured using a commercially available assay kit (glucose CII-test WAKO, Wako Pure Chemical Industries, Ltd.). The mice were grouped (5 mice per group) into a control group and an administration group, such that the mean and the standard deviation of the glucose level in the plasma of each group were nearly the same. Each test compound was suspended or dissolved in 5% gum arabic solution and administered orally to the administration group for 4 consecutive days from the next day. The 5% gum arabic solution was orally administered to the control group. Blood was drawn from the tail vein under a non-fasting state about 24 hours after the final administration and the glucose level in the plasma was measured. The decrease in the plasma glucose level was calculated from the following formula.
(§2) Decrease (%) in plasma glucose level=[(mean plasma glucose level of control group−mean plasma glucose level of test compound administration group)/mean plasma glucose level of control group]×100

male KK-A^y mice [2] = assay: Hypotriglyceridemic action; assay type: in vivo, mouse; settings: 4 consecutive days, non-fasting, about 24 hours after final administration, vs control group
Protocol: as §1, with “triglyceride” for “glucose”, “(triglyceride G-test” for “(glucose CII-test”
Decrease (%) in plasma triglyceride level=[(mean plasma triglyceride level of control group−mean plasma triglyceride level of test compound administration group)/mean plasma triglyceride level of control group]×100

male KK-A^y mice [3] = assay: Hypoglycemic action (method B); assay type: in vivo, mouse; settings: 0.1 w/w % in powder feed for 4 days, blood at day 5, non-fasting, vs control group
Protocol: The glucose level in the plasma was measured using a commercially available assay kit (glucose CII-test WAKO, Wako Pure Chemical Industries, Ltd.). The mice were grouped (5 mice per group) into a control group and an administration group, such that the mean and the standard deviation of the glucose level in the plasma of each group were nearly the same. Each test compound was admixed in a proportion of 0.1 w/w % with a powder feed (CE-2, Clea) and the feed mixture was fed to the administration group for 4 days from the next day. A regular powder feed was fed to the control group. At day 5, blood was drawn from the tail vein under a non-fasting state and the glucose level in the plasma was measured. The decrease in the plasma glucose level was calculated from the following formula.
as §2

male KK-A^y mice [4] = assay: Hypoglycemic action and hypoinsulinemic action in insulin resistant diabetic mouse; assay type: in vivo; settings: 10 mg/kg orally once a day for 4 days, 24 hours after final administration, non-fasting; for Plasma glucose: control 507; for Insulin: plasma, control 43
Protocol: Blood was drawn from the tail vein of 12-week-old male KK-A^y mice under a non-fasting state, and the glucose level in the plasma was measured using a commercially available assay kit (glucose CII-test WAKO, Wako Pure Chemical Industries, Ltd.). The mice were grouped (5 mice per group) into a control group and an administration group, such that the mean glucose level in the plasma and the average body weight of each group, as well as the standard deviation thereof were nearly the same. The test compound (10 mg/kg) was suspended in 5% aqueous gum arabic solution and orally administered once a day to the administration group for 4 days from the next day. The 5% aqueous gum arabic solution was orally administered to the control group. Blood was drawn from the tail vein under a non-fasting state 24 hours after the final administration. The concentrations of plasma glucose and plasma insulin were measured.

3T3-L1 cells = assay: Triglyceride accumulation promoting action in 3T3-L1 cells; assay type: cell-based; settings: 10^−7 M test compound with 10 ng/ml insulin, 4 days; relative to control
Protocol: A culture medium of 80% confluent 3T3-L1 cells was removed and the cells were dissociated with 0.25% trypsin-EDTA solution. 5% FBS-DMEM (the same amount as the removed medium) was added and the obtained cell suspension was centrifuged at 25° C., 100×g for 1 min to give cell sediment and the supernatant was removed. The cells were re-suspended in a suitable amount of 5% FBS-DMEM medium and the cells were counted. 5% FBS-DMEM medium was added to adjust the concentration to 1×10^5 cells/ml and the mixture was dispensed by 1 ml to a 24 well plate. The cells were cultured with aeration of 5% CO2 at 37° C. for 2 days. Upon confirmation of a post-confluent state, the culture supernatant was changed to a medium containing 0.5 mM-IBMX, and the cells were cultured for 2 days. Then, the medium was changed to a medium containing 10 ng/ml insulin and 10^−7 M test compound and the cells were cultured further for 4 days. After removing the culture supernatant, the cells were lysed in a 0.1% SDS solution and the triglyceride amount was measured. The triglyceride accumulation (%) due to the potentiation of insulin activity by the test compound was calculated from the following formula.
[(triglyceride amount with addition of test compound−triglyceride amount of control)/triglyceride amount of control]×100

Compound | Decrease (%) in plasma glucose level (male KK-A^y mice [1]; dose 10 mg/kg orally) [%] | Decrease (%) in plasma glucose level (male KK-A^y mice [1]; dose 30 mg/kg orally) [%] | Decrease (%) in plasma triglyceride level (male KK-A^y mice [2]; dose 10 mg/kg orally) [%] | Decrease (%) in plasma triglyceride level (male KK-A^y mice [2]; dose 30 mg/kg orally) [%] | Decrease (%) in plasma glucose level (male KK-A^y mice [3]) [%] | Plasma glucose (male KK-A^y mice [4]) [mg/dL] | Insulin (male KK-A^y mice [4]) [ng/mL] | Triglyceride accumulation (%) (3T3-L1 cells)
Cc1oc(-c2ccccc2)nc1CCOc1ccc2c(c1)CN(Cc1ccccc1)[C@H](C(=O)O)C2 [Example 2, 2-Benzyl-7-[2-(5-methyl-2-phenyloxazol-4-yl)ethoxy]-1,2,3,4-tetrahydroisoquinoline-(3S)-carboxylic acid] | 38.3 | 60.6 | 39.5 | 54.3 | 69.2 | 313 | 26 | 260.4
Cc1oc(-c2ccccc2)nc1CCOc1ccc2c(c1)CN(C(=O)c1ccccc1)[C@H](C(=O)O)C2 [Example 10, 2-Benzoyl-7-[2-(5-methyl-2-phenyloxazol-4-yl)ethoxy]-1,2,3,4-tetrahydroisoquinoline-(3S)-carboxylic acid] |  |  |  |  | 42.4 |  |  | 
Cc1oc(-c2ccccc2)nc1CCOc1ccc2c(c1)CN(Cc1ccc(F)cc1)[C@H](C(=O)O)C2 [Example 21, 2-(4-Fluorobenzyl)-7-[2-(5-methyl-2-phenyloxazol-4-yl)ethoxy]-1,2,3,4-tetrahydroisoquinoline-(3S)-carboxylic acid] |  | 43.4 |  | 24.4 |  |  |  | 284.9
Cc1oc(-c2ccccc2)nc1CCOc1ccc2c(c1)CN(CC(C)(C)C)[C@H](C(=O)O)C2 [Example 23, 2-(2,2-Dimethylpropyl)-7-[2-(5-methyl-2-phenyloxazol-4-yl)ethoxy]-1,2,3,4-tetrahydroisoquinoline-(3S.)-carboxylic acid] | 24.3 | 42.9 | 30.4 | 50.4 |  | 382 | 28 | 214.2
Cc1oc(C(C)(C)C)nc1CCOc1ccc2c(c1)CN(Cc1ccccc1)[C@H](C(=O)O)C2 [Example 32, 2-Benzyl-7-[2-(5-methyl-2-tert-butyloxazol-4-yl)ethoxy]-1,2,3,4-tetrahydroisoquinoline-(3S)-carboxylic acid] |  | 36.4 |  | 32.5 |  | 402 | 30 | 181.2
Cc1oc(-c2cccs2)nc1CCOc1ccc2c(c1)CN(Cc1ccccc1)[C@H](C(=O)O)C2 [Example 33, 2-Benzyl-7-[2-(5-methyl-2-(thiophen-2-yl)oxazol-4-yl)ethoxy]-1,2,3,4-tetrahydroisoquinoline-(3S)-carboxylic acid] |  | 38.8 |  | 42.0 |  |  |  | 222.5
C#CCN1Cc2cc(OCCc3nc(-c4ccccc4)oc3C)ccc2C[C@H]1C(=O)O [Example 39, 7-[2-(5-Methyl-2-phenyloxazol-4-yl)ethoxy]-2-(2-propynyl)-1,2,3,4-tetrahydroisoquinoline-(3S)-carboxylic acid] |  | 30.7 |  | 15.6 |  |  |  | 258.0
CC=CCN1Cc2cc(OCCc3nc(-c4ccccc4)oc3C)ccc2C[C@H]1C(=O)O [Example 40] |  | 46.3 |  | 36.1 |  |  |  | 231.0
C=CCCN1Cc2cc(OCCc3nc(-c4ccccc4)oc3C)ccc2C[C@H]1C(=O)O [Example 42, 2-(3-Butenyl)-7-[2-(5-methyl-2-phenyloxazol-4-yl)ethoxy]-1,2,3,4-tetrahydroisoquinoline-(3S)-carboxylic acid] | 27.6 | 49.6 |  | 31.6 |  | 308 | 27 | 193.6

Reference: patent publication US6589963B2, “Heterocyclic compounds and salts thereof and medicinal use of the same” (Kyoto Pharmaceutical Industries, Ltd., priority 1999, dated 2003)
